Values quoted from earlier work as cited in patent US6316468A, “Phenylindole derivatives as 5-HT2A receptor antagonists” (Merck Sharp & Dohme Ltd., priority 1997, dated 2001).

Columns and labels:
[1] = tested on: apomorphine-induced stereotyped behaviour; details: animal models, preclinical studies
[2] = schizophrenic patients, multicentre, placebo-controlled study
[3] = tested on: human dopamine D2 receptor

SMILES: COc1cccc(C(O)C2CCN(CCc3ccc(F)cc3)CC2)c1OC (single isomer, unassigned) [MDL-100,907, (+)-α-(2,3-dimethoxyphenyl)-1-[2-(4-fluorophenyl)-ethyl]-4-piperidinemethanol]
- antagonism of human 5-HT2A receptors (human 5-HT2A receptors): potent antagonist
- block of apomorphine-induced stereotyped behaviour [1]: failed to block apomorphine-induced stereotyped behaviour
- efficacy for antipsychotic potential [2]: demonstrated efficacy
- activity at the human dopamine D2 receptor [3]: essentially devoid of activity
